Assay [1] relates to histone acetylation (e.g., AcH3K9). Description: Histone H3K9 acetylation (AcH3K9), Western Blot, NCI-H1048 cells. Particulars: FIG. 1. It counts as cell-based, human. The method, then:
In some embodiments, an assessment is performed using cells. In some embodiments, cells were treated with various compounds before assessing KAT2A and/or KAT2B levels, histone (e.g., H3K9) acetylation levels, cell states, growth, etc.
Western Blot: In some assessments, MOLM13, NCI-H1048, LASCPC-01 and NEPC organoid cells were treated with compounds at certain concentrations for certain periods of time, and cell pellets were lysed by adding 1-part 4×laemmli Sample buffer (e.g., Bio-Rad Catalog #1610747) along with Mercaptoethanol (e.g., Bio-Rad Catalog #1610710) according to manufacturer's instructions, and 1-part RIPA buffer with 2×protease and phosphatase inhibitor. The samples were sonicated 30% amplitude, 35 seconds on and 35 seconds off for 1 cycle and boiled at 95° C. for 5 minutes. 30-35 μL of samples were loaded on a 4-15% Criterion™ TGX Stain-Free™ Protein Gel (Bio-rad, 5678084). In some assessments, NCI-H1048 flash frozen tumor pieces were resuspended in RIPA buffer and homogenized on TissueLyser II with steel beads at 30 Hz for 3 minutes. Samples were then centrifuged at […] at 4° C. for 15 minutes. BCA protein determination was performed and samples normalized for 1.95 ug/uL. 19.5 uL were loaded and run on similar gels as cell pellets. […]

For a further assay, the system named is NCI-H1048 cells. The assay is described as follows: Cell growth inhibition, SCLC cell line NCI-H1048 (cell count, day 11). Type of assay: cell-based, human. Particulars: for GI50: Homo sapiens. The text has this:
Among other things, provided technologies are useful for treating various diseases, disorders, or conditions. For example, in some embodiments, provided technologies are useful for treating cancer as confirmed in the present Example. […] In some embodiments, provided technologies can inhibit cell proliferation. In some embodiments, the present disclosure provides technologies for assessing various technologies, e.g., compounds, compositions, or methods. Among other things, the present Example provides technologies, e.g., cell growth inhibition assay, for assessing various technologies. […] In some embodiments, the following cell growth inhibition methods are utilized to assess provided technologies.
SCLC: SCLC cell lines NCI-H1048 and NCI-H1876 were cultured in DMEM F12 media with 5% FBS, 1% Penicillin/Streptomycin and HITES supplement (Hydrocortisone, Insulin, Transferrin, Estradiol and Sodium Selenite). NCI-H1048 cells were plated at 10,000 cells/well of a 24-well plate and NCI-H1876 cells were plated at 20,000 cells/well of a 96-well plate. Compound and media were replenished every two days out to day 11 and 10 respectively. Cells were then trypsinized and counted using either hemocytometer or an automated Countess cell counter.
In some assessments, for cell growth inhibition, cells, e.g., MOLM13, NCI-H1048, and LASCPC-01 cells, were counted using a hemocytometer or automated cell counting in triplicates. In some assessments, proliferation in NEPC organoids as measured with Cell Titer Glo reagent (Promega). Growth inhibition was determined relative to vehicle control.

In assay [2] the test system is NEPC primary patient organoid. The assay is described as follows: Cell viability of NEPC primary patient organoid, 21 days. It counts as cell-based. As to conditions: Homo sapiens, 504 h, cell viability relative to DMSO control after 21 days, FIG. 3 (E). The method, then:
(§1) FIG. 3. Provided compounds can provide various activities. (A): Provided technologies can reduce KAT2A and KAT2B levels and histone acetylation levels. […] Cell viability (Cell Titer Glo) data relative to DMSO control after 7 days of treatment with compound 22 are presented as examples to confirm inhibition. GI50=5 nM. (C): Provided technologies can modulate cell states and induce differentiation. […] (D): Provided technologies can reduce KAT2A and KAT2B levels and histone acetylation levels including in neuroendocrine prostate cancer primary patient organoid. […] Concentrations are nM. […] Cell viability data relative to DMSO control after 21 days of treatment with compound 22 are presented as examples to confirm inhibition. GI50=3 nM. (F): Provided technologies can modulate cell states and induce differentiation.

Another assay deals with MOLM-13 cells. Description: Cell growth inhibition (cell count, 8 days), MOLM-13 cells. Type of assay: cell-based. As to conditions: Homo sapiens, 192 h, cell count after 8 days relative to DMSO control, FIG. 2 (B). The method, then:
FIG. 2. Provided compounds can provide various activities. (A): Provided technologies can reduce KAT2A and KAT2B levels and histone acetylation levels. […] Cell count data after 8 days of treatment with compound 22 relative to DMSO control are presented as examples to confirm inhibition. […] (C): Provided technologies can modulate cell states and induce differentiation. […] EC50=0.3 nM.

For another assay, the target named is KAT2A (Homo sapiens, UniProt Q92830). Description: Western blot of KAT2A level in NEPC primary patient organoid, 72 hours. Type of assay: cell-based. Also noted: degrader, Western blot. Particulars: FIG. 3 (D). The method, then: as §1
Background: In western blotting, separated proteins are transferred to a membrane and probed.

Read-outs that look alike come from different tables or passages of the source.

KAT2A, sequence (Q92830 whole entry): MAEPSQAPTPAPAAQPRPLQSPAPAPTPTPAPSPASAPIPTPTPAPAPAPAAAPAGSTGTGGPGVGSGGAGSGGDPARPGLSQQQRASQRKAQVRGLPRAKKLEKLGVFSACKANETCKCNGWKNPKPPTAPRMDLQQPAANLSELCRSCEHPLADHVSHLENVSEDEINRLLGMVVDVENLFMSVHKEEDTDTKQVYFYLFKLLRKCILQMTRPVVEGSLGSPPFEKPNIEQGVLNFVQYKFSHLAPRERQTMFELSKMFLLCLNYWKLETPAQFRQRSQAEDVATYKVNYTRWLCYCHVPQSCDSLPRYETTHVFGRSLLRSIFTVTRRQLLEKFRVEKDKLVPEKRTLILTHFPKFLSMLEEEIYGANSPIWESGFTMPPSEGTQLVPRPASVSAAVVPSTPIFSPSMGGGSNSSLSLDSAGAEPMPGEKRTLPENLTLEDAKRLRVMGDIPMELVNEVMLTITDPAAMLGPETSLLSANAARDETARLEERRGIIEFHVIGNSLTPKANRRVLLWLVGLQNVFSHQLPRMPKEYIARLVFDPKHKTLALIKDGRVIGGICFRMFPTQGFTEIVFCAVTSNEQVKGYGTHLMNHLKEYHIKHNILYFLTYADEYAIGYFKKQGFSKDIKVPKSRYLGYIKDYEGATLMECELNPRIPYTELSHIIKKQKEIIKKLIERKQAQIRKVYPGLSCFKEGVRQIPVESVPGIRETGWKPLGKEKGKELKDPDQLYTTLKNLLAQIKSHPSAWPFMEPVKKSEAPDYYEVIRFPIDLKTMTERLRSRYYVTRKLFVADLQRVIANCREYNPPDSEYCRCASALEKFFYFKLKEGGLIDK

A word on the GI50: it is the concentration giving 50% growth inhibition. As for `CN1C[C@H](Nc2cnn(C)c(=O)c2Br)C[C@H](c2ccc(C(=O)N3CCC(CN4CCN(c5ccc6c(c5)CN(C5CCC(=O)NC5=O)C6=O)CC4)CC3)cc2)C1` (stereo partly drawn) [Compound 22, 3-(5-(4-((1-(4-((3R,5R)-5-((5-bromo-1-methyl-6-oxo-1,6-dihydropyridazin-4-yl)amino)-1-methylpiperidin-3-yl)benzoyl)piperidin-4-yl)methyl)piperazin-1-yl)-1-oxoisoindolin-2-yl)piperidine-2,6-dione], in assay [1], the “histone acetylation (e.g., AcH3K9) levels” value is reported as “reduce histone acetylation (e.g., AcH3K9) levels”. For the same compound, the GI50 was 1 nM in the assay on NCI-H1048 cells (264 h, NCI-H1048, day 11, cell count, read-out: H1048 GI50); 1.5 nM in the assay with NCI-H1048 cells (NCI-H1048, comparison table with Ref-1, read-out: Growth GI50); 3 nM in assay [2]; 1.2 nM in the assay on MOLM-13 cells. For the same compound, the “cell growth in vitro” value in the assay with NCI-H1048 cells (NCI-H1048 cells, FIG. 1) is “inhibit cell growth in vitro and in vivo”. In addition, the “reduction of KAT2A level” value at KAT2A is “confirmed such reductions”.

(Values after patent US20260306640A1, “TECHNOLOGIES TARGETING CELL STATES” (Auron Therapeutics, Inc., priority 2023, published 2026).)
